Test results from patent publication US5869658A, “Photochromic indeno-fused naptho[2,1-b]pyrans” (PPG Industries, Inc., priority 1997, dated 1999).

Experiments:
[1] = Photochromic response of test squares on an optical bench (ΔOD/Min, ΔOD at saturation, bleach rate); assay type: physicochemical; conditions: for ΔOD @ saturation: UV exposure continued for 20 minutes; for ΔOD @ saturation / ΔOD/MIN sensitivity: 75° F., 1.5×10^-3 molal in polymer; for ΔOD/MIN sensitivity: first five seconds of UV exposure, expressed per minute; for Bleach T 1/2: time to one half the highest absorbance at room temperature (75° F.) after removal of activating light
Method: (§1) Testing was done with the photochromic compounds described in Examples 1-5 and 7-9 in the following manner. A quantity of photochromic compound calculated to yield a 1.5×10^-3 molal solution was added to a flask containing 50 grams of a monomer blend of 4 parts ethoxylated bisphenol A dimethacrylate (BPA 2EO DMA), 1 part poly(ethylene glycol) 600 dimethacrylate, and 0.033 weight percent 2,2'-azobis(2-methyl propionitrile) (AIBN). The photochromic compound was dissolved into the monomer blend by stirring and gentle heating. After a clear solution was obtained, it was poured into a flat sheet mold having the interior dimensions of 2.2 mm×6 inches (15.24 cm)×6 inches (15.24 cm). The mold was sealed and placed in a horizontal air flow, programmable oven programmed to increase the temperature from 40° C. to 95° C. over a 5 hour interval, hold the temperature at 95° C. for 3 hours and then lower it to 60° C. for at least 2 hours. After the mold was opened, the polymer sheet was cut using a diamond blade saw into 2 inch (5.1 centimeters) test squares.
The photochromic test squares prepared in Part A were tested for photochromic response on an optical bench. Prior to testing on the optical bench, the photochromic test squares were exposed to 365 nanometer ultraviolet light for about 15 minutes to activate the photochromic compounds and then placed in a 76° C. oven for about 15 minutes to bleach or inactivate the photochromic compounds. The test squares were then cooled to room temperature, exposed to fluorescent room lighting for at least 2 hours and then kept covered for at least 2 hours prior to testing on an optical bench maintained at 75° F. (23.90° C.). The bench was fitted with a 150 watt Xenon arc lamp, a remote controlled shutter, a copper sulfate bath acting as a heat sink for the arc lamp, a Schott WG-320 nm cut-off filter which removes short wavelength radiation; neutral density filter(s) and a sample holder in which the square to be tested was inserted. A collimated beam of light from a tungsten lamp was passed through the square at a small angle (approximately 30°) normal to the square. After passing through the square, the light from the tungsten lamp was directed to a detector through Spectral Energy Corp. GM-200 monochromator set at the previously determined visible lambda max of the photochromic compound being measured. The output signals from the detector were processed by a radiometer.
Change in optical density (ΔOD) was determined by inserting a test square in the bleached state into the sample holder, adjusting the transmittance scale to 100% opening the shutter from the Xenon lamp to provide ultraviolet radiation to change the test square from the bleached state to an activated (i.e., darkened) state, measuring the transmittance in the activated state, and calculating the change in optical density according to the formula: ΔOD=log(100/%Ta), where %Ta is the percent transmittance in the activated state and the logarithm is to the base 10.
The Δ OD/Min, which represents the sensitivity of the photochromic compound's response to UV light, was measured over the first five (5) seconds of UV exposure, then expressed on a per minute basis. The saturation optical density (Δ OD@ Sat) was taken under identical conditions as the Δ OD/Min, except UV exposure was continued for 20 minutes. The lambda max (Vis) is the wavelength in the visible spectrum at which the maximum absorption of the activated (colored) form of the photochromic compound in a test square occurs. The lambda max (Vis) wavelength was determined by testing the photochromic test square polymerizates of Part A in a Varian Cary 3 UV-Visible spectrophotometer. The lambda (λ) max (UV) is the wavelength in the ultraviolet range closest to the visible spectrum at which the absorption of the photochromic compound occurs. This absorption was also determined with the same spectrophotometer. […]

[2] = Lambda max of photochromic test squares by UV-Visible spectrophotometer; assay type: physicochemical; set-up: unit not given here; conditions: Varian Cary 3; for (λ) max (VIS): activated (colored) form in polymer test square, visible spectrum wavelength of maximum absorption; for (λ) max (UV): photochromic compound in polymer test square, ultraviolet wavelength closest to the visible spectrum
Method: as §1
The Δ OD/Min, which represents the sensitivity of the photochromic compound's response to UV light, was measured over the first five (5) seconds of UV exposure, then expressed on a per minute basis. The saturation optical density (Δ OD@ Sat) was taken under identical conditions as the Δ OD/Min, except UV exposure was continued for 20 minutes. The lambda max (Vis) is the wavelength in the visible spectrum at which the maximum absorption of the activated (colored) form of the photochromic compound in a test square occurs. The lambda max (Vis) wavelength was determined by testing the photochromic test square polymerizates of Part A in a Varian Cary 3 UV-Visible spectrophotometer. The lambda (λ) max (UV) is the wavelength in the ultraviolet range closest to the visible spectrum at which the absorption of the photochromic compound occurs. This absorption was also determined with the same spectrophotometer. The bleach rate (T 1/2) is the time interval in seconds for the absorbance of the activated form of the photochromic compound in the test squares to reach one half the highest absorbance at room temperature (75° F., 23.90° C.) after removal of the source of activating light.

Compound | ΔOD @ saturation [1] | ΔOD/MIN sensitivity [1] | Bleach T 1/2 [1] [s] | (λ) max (VIS) [2] | (λ) max (UV) [2]
COc1ccc2c3c(c4c(c2c1)C=CC(c1ccccc1)(c1ccccc1)O4)Cc1ccccc1-3 [Example 1, 6-methoxy-2,2-diphenyl-2,13-dihydro-indeno[1'2':4,3]naphtho[2,1-b]pyran] | 0.38 | 0.52 ΔOD/MIN | 42 | 437 | 366
COc1cc2c3c(c4c(c2cc1OC)-c1ccccc1C4)OC(c1ccccc1)(c1ccccc1)C=C3 [Example 2, 6,7-dimethoxy-2,2-diphenyl-2,13-dihydro-indeno[1'2':4,3]naphtho[2,1-b]pyran] | 0.44 | 0.48 ΔOD/MIN | 51 | 443 | 387
COc1ccc(C2(c3ccccc3F)C=Cc3c(c4c(c5cc(OC)c(OC)cc35)-c3ccccc3C4)O2)cc1 (stereo not shown) [Example 3, 6,7-dimethoxy-2-(2-fluorophenyl)-2-(4-methoxyphenyl)-2,13-dihydro-indeno[1',2':4,3]naphtho[2,1-b]pyran] | 1.22 | 0.48 ΔOD/MIN | 227 | 464 | 385
COc1cc2c3c(c4c(c2cc1OC)-c1ccccc1C4C)OC(c1ccccc1)(c1ccccc1)C=C3 (stereo not shown) [Example 4, 6,7-dimethoxy-2,2-diphenyl-13-methyl-2,13-dihydro-indeno[1',2':4,3]naphtho[2,1-b]pyran] | 0.38 | 0.43 ΔOD/MIN | 62 | 442 | 356
COc1cc2c3c(c4c(c2cc1OC)-c1ccccc1C4(C)C)OC(c1ccccc1)(c1ccccc1)C=C3 [Example 5, 6,7-dimethoxy-2,2-diphenyl-13,13-dimethyl-2,13-dihydro-indeno[1',2':4,3]naphtho[2,1-b]pyran] | 0.37 | 0.39 ΔOD/MIN | 58 | 446 | 358

Results, then the compound that gave them:

ΔOD @ saturation [1] | ΔOD/MIN sensitivity [1] | Bleach T 1/2 [1] [s] | (λ) max (VIS) [2] | (λ) max (UV) [2] | Compound
0.23 | 0.41 ΔOD/MIN | 38 | 445 | 356 | CCCCC1(O)c2ccccc2-c2c1c1c(c3cc(OC)c(OC)cc23)C=CC(c2ccccc2)(c2ccccc2)O1 (stereo not shown) [Example 7, 6,7-dimethoxy-2,2-diphenyl-13-hydroxy-13-butyl-2,13-dihydro-indeno[1',2':4,3]naphtho[2,1-b]pyran]
0.25 | 0.41 ΔOD/MIN | 35 | 459 | 361 | COc1cc2c3c(c4c(c2cc1OC)-c1ccccc1C4(C)O)OC(c1ccccc1)(c1ccccc1)C=C3 (stereo not shown) [Example 8, 6,7-dimethoxy-2,2-diphenyl-13-hydroxy-13-methyl-2,13-dihydro-indeno[1',2':4,3]naphtho[2,1-b]pyran]
0.17 | 0.28 ΔOD/MIN | 31 | 469 | 359 | COc1cc2c3c(c4c(c2cc1OC)-c1ccccc1C4O)OC(c1ccccc1)(c1ccccc1)C=C3 (stereo not drawn) [Example 9, 6,7-dimethoxy-2,2-diphenyl-13-hydroxy-2,13-dihydro-indeno[1',2':4,3]naphtho[2,l-b]pyran]
